Test results published in the supplement of paper PMC11208160.

Test: recombinant UMI read abundance after kanamycin selection (control-corrected) (log10(CPM+1)); higher = more efficient recombination; extreme values may be limits of the assay; sequences stand for … in AGTGCAGAGAAAATCGGCCAGTTTTCTCTGCCTGCAGTCCGCATGCCGTGGGACCCCTTGGGTTCTAACCTGTTGCCTAGATTTATGCAGCGGACTGCCTTTCTCCCAAAGTGATAAACCGG…AGGTTGGTTTCACT; site = the 11-nt donor
Procedure, shortened: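 In a pooled Escherichia coli screen for the IS621 bridge recombinase, donor and donor-binding-loop pairs were each placed with a 12-nt UMI on a plasmid bearing a promoterless kanamycin gene. This library was co-electroporated with a target plasmid encoding a fixed target and T7-inducible recombinase, and cells were plated either on IPTG (0.07 mM) plus kanamycin or without selection, in two replicates each. Recombinant UMIs were PCR-amplified across the donor–target junction and sequenced, and counts were converted to CPM, averaged over replicates, scaled by control-derived factors and reported as log10(CPM+1).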
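Further: IS621 bridge recombinase in Escherichia coli cells against a fixed T5 target plasmid.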

| Sequence | recombinant UMI read abundance (log10) |
| --- | --- |
| TGTTCCGCATGGACCGGTTTTCCCGGTAATCCGTATTTGTA (site TGTTCCACTTA) | 0.00713 |
| TGTTCCGCATGGACCGGTTTTCCCGGTAATCCGTATTTGTA (site TGTTCCCCTTA) | 0.0203 |
| TGTTCCGCATGGACCGGTTTTCCCGGTAATCCGTATTTGTA (site TGTTCCGCTTA) | 0.0982 |
| TGTTCCGCATGGACCGGTTTTCCCGGTAATCCGTATTTGTA (site TGTTCCTCTTA) | 0 |
| TGTTCTCCATGGACCGGTTTTCCCGGTAATCCGTATTTGTA (site TGTTCACCTTA) | 0.0104 |
| TGTTCTCCATGGACCGGTTTTCCCGGTAATCCGTATTTGTA (site TGTTCCCCTTA) | 0.00777 |
| TGTTCTCCATGGACCGGTTTTCCCGGTAATCCGTATTTGTA (site TGTTCGCCTTA) | 0.0191 |
| TGTTCTCCATGGACCGGTTTTCCCGGTAATCCGTATTTGTA (site TGTTCTCCTTA) | 0.679 |
| TGTTGGACATGGACCGGTTTTCCCGGTAATCCGTATTTGTG (site TGTTGGACTCA) | 0.117 |
| TGTTGTGCATGGACCGGTTTTCCCGGTAATCCGTATTTGCG (site TGTTGTGCTCG) | 0.684 |
| TTAAGAGCATGGACCGGTTTTCCCGGTAATCCGTATTTGCA (site TTAAGAGCTTG) | 2.63 |
| TTAAGGCCATGGACCGGTTTTCCCGGTAATCCGTATTTGAC (site ATAAGGCCTGT) | 0 |
| TTAAGGCCATGGACCGGTTTTCCCGGTAATCCGTATTTGAC (site CTAAGGCCTGT) | 0 |
| TTAAGGCCATGGACCGGTTTTCCCGGTAATCCGTATTTGAC (site GTAAGGCCTGT) | 0 |
| TTAAGGCCATGGACCGGTTTTCCCGGTAATCCGTATTTGAC (site TTAAGGCCTGT) | 0 |
| TTAAGTCCATGGACCGGTTTTCCCGGTAATCCGTATTTGTA (site TAAAGTCCTTA) | 0.00903 |
| TTAAGTCCATGGACCGGTTTTCCCGGTAATCCGTATTTGTA (site TCAAGTCCTTA) | 0.361 |
| TTAAGTCCATGGACCGGTTTTCCCGGTAATCCGTATTTGTA (site TGAAGTCCTTA) | 0.0153 |
| TTAAGTCCATGGACCGGTTTTCCCGGTAATCCGTATTTGTA (site TTAAGTCCTTA) | 1.44 |
| TTAATAGCATGGACCGGTTTTCCCGGTAATCCGTATTTGAT (site TTAATAGCTAT) | 1.76 |
| TTAATTCCATGGACCGGTTTTCCCGGTAATCCGTATTTGTG (site TTAATTCCTCA) | 0.4 |
| TTACAACCATGGACCGGTTTTCCCGGTAATCCGTATTTGCA (site TTACAACCTTG) | 0 |
| TTACACTCATGGACCGGTTTTCCCGGTAATCCGTATTTGAT (site TTACACTCTAT) | 2.95 |
| TTACAGACATGGACCGGTTTTCCCGGTAATCCGTATTTGAG (site TTACAGACTCT) | 1.21 |
| TTACGAACATGGACCGGTTTTCCCGGTAATCCGTATTTGAC (site TTACGAACTGT) | 2.28 |

| Sequence | recombinant UMI read abundance (log10) |
| --- | --- |
| TTACTAACATGGACCGGTTTTCCCGGTAATCCGTATTTGGA (site ATACTAACTTC) | 0.0425 |
| TTACTAACATGGACCGGTTTTCCCGGTAATCCGTATTTGGA (site CTACTAACTTC) | 0.457 |
| TTACTAACATGGACCGGTTTTCCCGGTAATCCGTATTTGGA (site GTACTAACTTC) | 0.288 |
| TTACTAACATGGACCGGTTTTCCCGGTAATCCGTATTTGGA (site TTACTAACTTC) | 0.363 |
| TTAGAATCATGGACCGGTTTTCCCGGTAATCCGTATTTGAC (site CTAGTATCTGT) | 0 |
| TTAGAATCATGGACCGGTTTTCCCGGTAATCCGTATTTGAC (site TTAGAATCTGT) | 1.48 |
| TTAGCTACATGGACCGGTTTTCCCGGTAATCCGTATTTGTG (site TTAGCTACTCA) | 0.319 |
| TTAGCTACATGGACCGGTTTTCCCGGTAATCCGTATTTGTG (site TTAGCTCCTCA) | 0.00713 |
| TTAGCTACATGGACCGGTTTTCCCGGTAATCCGTATTTGTG (site TTAGCTGCTCA) | 0.0109 |
| TTAGCTACATGGACCGGTTTTCCCGGTAATCCGTATTTGTG (site TTAGCTTCTCA) | 0.0149 |
| TTAGCTGCATGGACCGGTTTTCCCGGTAATCCGTATTTGTC (site TTAGCTGCTAA) | 0.00712 |
| TTAGCTGCATGGACCGGTTTTCCCGGTAATCCGTATTTGTC (site TTAGCTGCTCA) | 0.00796 |
| TTAGCTGCATGGACCGGTTTTCCCGGTAATCCGTATTTGTC (site TTAGCTGCTGA) | 2.26 |
| TTAGCTGCATGGACCGGTTTTCCCGGTAATCCGTATTTGTC (site TTAGCTGCTTA) | 0.15 |
| TTAGTATCATGGACCGGTTTTCCCGGTAATCCGTATTTGAC (site ATAGTATCTGT) | 2.12 |
| TTAGTATCATGGACCGGTTTTCCCGGTAATCCGTATTTGAC (site CTAGTATCTGT) | 2.18 |
| TTAGTATCATGGACCGGTTTTCCCGGTAATCCGTATTTGAC (site GTAGTATCTGT) | 0.348 |
| TTAGTATCATGGACCGGTTTTCCCGGTAATCCGTATTTGAC (site TTAGTATCTGT) | 2.84 |
| TTAGTCACATGGACCGGTTTTCCCGGTAATCCGTATTTGGG (site TTAGTCACTCC) | 0.0104 |
| TTAGTCGCATGGACCGGTTTTCCCGGTAATCCGTATTTGCG (site ATAGTCGCTCG) | 0.0346 |
| TTAGTCGCATGGACCGGTTTTCCCGGTAATCCGTATTTGCG (site CTAGTCGCTCG) | 0.00978 |
| TTAGTCGCATGGACCGGTTTTCCCGGTAATCCGTATTTGCG (site GTAGTCGCTCG) | 0.00638 |
| TTAGTCGCATGGACCGGTTTTCCCGGTAATCCGTATTTGCG (site TTAGTCGCTCG) | 0.224 |
| TTAGTTACATGGACCGGTTTTCCCGGTAATCCGTATTTGGC (site TTAGTTACTGC) | 0.857 |
| TTATCATCATGGACCGGTTTTCCCGGTAATCCGTATTTGCA (site TTATCATCTTG) | 1.53 |

| Sequence | recombinant UMI read abundance (log10) |
| --- | --- |
| TTATCGTCATGGACCGGTTTTCCCGGTAATCCGTATTTGGC (site TTATCGTCTGC) | 1.36 |
| TTATCTGCATGGACCGGTTTTCCCGGTAATCCGTATTTGAT (site TTATCTGCTAT) | 0.557 |
| TTATGCACATGGACCGGTTTTCCCGGTAATCCGTATTTGTA (site ATATGCACTTA) | 0.0128 |
| TTATGCACATGGACCGGTTTTCCCGGTAATCCGTATTTGTA (site CTATGCACTTA) | 0.34 |
| TTATGCACATGGACCGGTTTTCCCGGTAATCCGTATTTGTA (site GTATGCACTTA) | 0.0305 |
| TTATGCACATGGACCGGTTTTCCCGGTAATCCGTATTTGTA (site TTATGCACTTA) | 0.769 |
| TTATTCCCATGGACCGGTTTTCCCGGTAATCCGTATTTGCA (site TTATTCCCTTG) | 0 |
| TTCAATGCATGGACCGGTTTTCCCGGTAATCCGTATTTGCA (site TTCAATGCTTG) | 0 |
| TTCAGAGCATGGACCGGTTTTCCCGGTAATCCGTATTTGCC (site TTCAGAGCTGG) | 0 |
| TTCAGCTCATGGACCGGTTTTCCCGGTAATCCGTATTTGGT (site TTCAGCTCTAC) | 0.00826 |
| TTCAGTGCATGGACCGGTTTTCCCGGTAATCCGTATTTGGC (site TTCAGTGCTGC) | 0 |
| TTCATACCATGGACCGGTTTTCCCGGTAATCCGTATTTGCC (site TTCATACCTGG) | 0 |
| TTCCAGACATGGACCGGTTTTCCCGGTAATCCGTATTTGTA (site TTCCAGACTTA) | 0.13 |
| TTCCCGCCATGGACCGGTTTTCCCGGTAATCCGTATTTGTT (site TTCCCGCCTAA) | 0.00311 |
| TTCCGCGCATGGACCGGTTTTCCCGGTAATCCGTATTTGCC (site TTCCGCGCTGG) | 0.632 |
| TTCCTAGCATGGACCGGTTTTCCCGGTAATCCGTATTTGAA (site TTCCTAGCTTT) | 0.0135 |
| TTCCTATCATGGACCGGTTTTCCCGGTAATCCGTATTTGCA (site TTCCTATCTTG) | 1.53 |
| TTCGAGCCATGGACCGGTTTTCCCGGTAATCCGTATTTGAC (site TTCGAGCCTGT) | 0 |
| TTCGCGGCATGGACCGGTTTTCCCGGTAATCCGTATTTGCT (site TTAGCGGCTAG) | 0.33 |
| TTCGCGGCATGGACCGGTTTTCCCGGTAATCCGTATTTGCT (site TTCGCGGCTAG) | 0.587 |
| TTCGCGGCATGGACCGGTTTTCCCGGTAATCCGTATTTGCT (site TTGGCGGCTAG) | 0.00776 |
| TTCGCGGCATGGACCGGTTTTCCCGGTAATCCGTATTTGCT (site TTTGCGGCTAG) | 0.0106 |
| TTCGCTGCATGGACCGGTTTTCCCGGTAATCCGTATTTGTG (site TTAGCTGCTCA) | 0.018 |
| TTCGCTGCATGGACCGGTTTTCCCGGTAATCCGTATTTGTG (site TTCGCTGCTCA) | 0.0258 |
| TTCGCTGCATGGACCGGTTTTCCCGGTAATCCGTATTTGTG (site TTGGCTGCTCA) | 0.0131 |
